Experimental data taken from article PMC8745710, “Biological Evaluation and Molecular Docking Studies of Novel 1,3,4-Oxadiazole Derivatives of 4,6-Dimethyl-2-sulfanylpyridine-3-carboxamide” (International Journal of Molecular Sciences, 2022).
Where two headings read alike, the source gives them in different places.

Tests used:
[1] = test system: NHDF (normal human dermal fibroblasts); test: MTT assay, NHDF; assay type: cell-based; conditions: 48 h incubation, read-out: IC50 [µM] ± SD NHDF
Description: (§1) The MTT (3-[4,5-dimethylthiazol-2-yl]-2,5-diphenyl tetrazolium bromide) assay was used to determine the cytotoxicity of tested compounds towards different cell lines: normal human dermal fibroblasts (NHDF), kidney epithelial cells (VERO), fibroblasts from Chinese hamster lung (V79) and four human cancer cells: A549 (pulmonary basal cell alveolar adenocarcinoma), MCF-7 (breast adenocarcinoma), LoVo (colon adenocarcinoma), and its drug resistant subline LoVo/Dx. The cell lines used in this study express COX-1 and COX-2. The LoVo line expressed COX-1, the LoVo/Dx subline express both COX-1 and COX-2 [61].
(§2) Each cell line was grown in the culture media recommended by supplier. Before the test they were detached with trypsin/EDTA solution, then to neutralize the effect of Trypsin/EDTA solution, FBS containing medium was used. After centrifugation the cells were stained with 0.4% solution of trypan blue, counted and inspected for viability using microscope. In the end, cells were inserted into 96-well culture plates and incubated in CO2 incubator (37 °C, 24 h). The number of cells was 2 × 10^3 cells per well. The tested compounds with different concentrations (5, 10, 20, 50, 100 µM) were dissolved in DMSO and then added to the cells (the final DMSO concentration was 0.1%). The cultures were incubated for another 48 h. After that time the cells were collected to be used in tests.
(§3) MTT assay was used to find out how tested compounds influence the metabolic activity of investigated cell lines. The cells were incubated with tested compounds. After removing of supernatant, 1 mg/mL of MTT solution in MEM was added to the plate (to each well) and then the plates were incubated at 37 °C for 2 h. The medium was removed again, and formazan crystals were dissolved in isopropanol. A Varioscan LUX microplate reader (Thermo Fisher Scientific, Waltham, MA, USA) was used to measure absorbance at 570 nm.

COX-1 = target: T1, COX-1 (Ovis aries, UniProt P05979); test: COX colorimetric inhibitor screening assay, COX-1; assay type: biochemical; conditions: after 2 min of incubation, n = 5; for IC50: read-out: IC50 [µM] ± SD COX-1
T1 construct: purchased Cayman Chemical Company, Ann Arbor, MI, USA
T1 sequence (P05979 25-600): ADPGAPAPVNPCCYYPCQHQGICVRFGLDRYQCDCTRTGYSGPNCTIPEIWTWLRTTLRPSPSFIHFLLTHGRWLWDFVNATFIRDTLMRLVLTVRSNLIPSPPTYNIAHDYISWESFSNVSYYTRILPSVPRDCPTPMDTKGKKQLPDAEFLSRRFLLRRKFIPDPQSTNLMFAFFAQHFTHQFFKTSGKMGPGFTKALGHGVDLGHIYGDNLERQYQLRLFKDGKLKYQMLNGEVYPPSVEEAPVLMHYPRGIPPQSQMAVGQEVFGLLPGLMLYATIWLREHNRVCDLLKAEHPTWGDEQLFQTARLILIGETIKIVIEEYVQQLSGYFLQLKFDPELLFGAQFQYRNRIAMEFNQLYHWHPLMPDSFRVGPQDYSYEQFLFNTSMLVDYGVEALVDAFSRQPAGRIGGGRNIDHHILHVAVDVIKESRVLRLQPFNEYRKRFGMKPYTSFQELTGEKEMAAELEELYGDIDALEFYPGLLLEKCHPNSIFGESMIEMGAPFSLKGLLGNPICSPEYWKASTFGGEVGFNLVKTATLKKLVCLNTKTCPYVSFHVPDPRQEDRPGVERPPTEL
Description: The compounds were studied for their potencies to inhibit COX-1 and COX-2 enzymes by the colorimetric inhibitor screening assay.
A COX Colorimetric Inhibitor Screening Assay Kit, produced by Cayman Chemical Company, Ann Arbor, MI, USA, was used. It used the colorimetric monitoring of oxidized form of TMPD (N,N,N′,N′-tetramethyl-p-phenylenediamine) which was produced during reduction of prostaglandin G2 (PGG2) to PGH2. […] Reagents used it this assay were: COX-1 and COX-2 enzymes, Tris-HCl buffer, solutions of heme in DMSO and TMPD, arachidonic acid, KOH. To be sure that 100% enzymatic activity was achieved each sample was measured 3 times. The probes were measured after two minutes of incubation with tested compounds in the comparison to the initial activity of enzyme.

[2] = test system: VERO (kidney epithelial cells); test: MTT assay, VERO; assay type: cell-based; conditions: Chlorocebus sabaeus, Vero, 48 h incubation, read-out: IC50 [µM] ± SD VERO
Description: as §1, §2, §3

LoVo cell line = test: Intracellular ROS level (DCFH-DA), LoVo cells; assay type: cell-based; conditions: Homo sapiens, 4 h, compound 100 μM
Description: Two cell lines were chosen for investigations: V79 (Chinese hamster lung fibroblasts) and LoVo. V79 normal cells are widely used as the cell line tested in the studies of the oxidative stress. These cells are a living system model to explain the mechanism of ROS effects caused by varied compounds [73].
First, the tested compounds (in concentration of 100 μM) were added to the cell cultures and cells were incubated for 4 h. Then cells were washed and incubated with DCFH-DA (non-fluorescent probe) in dark at 37 °C for 2 h at CO2 [79]. Non-fluorescent, non-polar DCFH-DA (2′7′-dichlorodihydrofluorescein diacetate) at concentration of 25 μM was used as a marker of oxidative stress to determine the intracellular ROS levels. […] In this time, DCFH-DA which penetrated into the cells, was hydrolyzed by esterases to polar, non-fluorescent DCFH (2′7′-dichlorodihydrofluorescein) and then oxidized in the presence of ROS (reactive oxygen species) to fluorescent DCF (2′7′-dichlorofluorescein). DCF was measured using Varioscan LUX microplate reader (Thermo Fisher Scientific, Waltham, MA, USA) at λex = 485 nm and λem = 535 nm.
E is the culture with the tested compound and E0 is the negative control without the compound. The routine statistical methods: two-way analysis of variance ANOVA as well as Tukey’s post-hoc test were used. It allowed us to determine the statistical significance of results, where p < 0.05 was set as significant. The statistical indicators were estimated using Statistica 13.3 software.

[3] = with H2O2 (100 μM, 30 min), n = 5, read-out: ROS scavenging activity, Mean E/E0 ± SD, with H2O2
[4] = without H2O2, n = 5, read-out: ROS scavenging activity, Mean E/E0 ± SD, without H2O2

SMILES	IC50 [1] [µM]	melting point [°C]	IC50 (COX-1) [µM]	IC50 [2] [µM]	activity at 100 µM (LoVo cell line; [3]) [%]	activity at 100 µM (LoVo cell line; [4]) [%]	IC50 [µM] ± SD COX-1 (COX-1)
Cc1cc(C)c(C(=O)NCc2nn(CC(=O)NN)c(=S)o2)c(S)n1 [Compound 4, N-{[4-(2-hydrazinyl-2-oxoethyl)-5-sulfanylidene-4,5-dihydro-1,3,4-oxadiazol-2-yl]methyl}-4,6-dimethyl-2-sulfanylpyridine-3-carboxamide]	57.5 ± 1.22	201 to 205	135 ± 5.99	77.4 ± 5.84	83 ± 8	69 ± 33	–
Cc1cc(C)c(C(=O)NCc2nn(CC(=O)NN=Cc3ccccc3)c(=S)o2)c(S)n1 [Compound 5, 4,6-Dimethyl-N-{[4-(2-(2-benzylidenehydrazinyl)-2-oxoethyl)-5-sulfanylidene-4,5-dihydro-1,3,4-oxadiazol-2-yl]methyl}-2-sulfanylpyridine-3-carboxamide]	59 ± 1.49	236 to 239	73.9 ± 3.03	100 ± 13.5	87 ± 21	72 ± 21	–
Cc1cc(C)c(C(=O)NCc2nn(CC(=O)NN=Cc3ccc(F)cc3)c(=S)o2)c(S)n1 [Compound 6, 4,6-Dimethyl-N-{[4-(2-(2-(4-fluorobenzylidene)hydrazinyl)-2-oxoethyl)-5-sulfanylidene-4,5-dihydro-1,3,4-oxadiazole-2-yl]methyl}-2-sulfanylpyridine-3-carboxamide]	58.2 ± 0.92	295 to 298	145 ± 20.9	59.6 ± 5.42	88 ± 4	74 ± 22	–
Cc1ccc(C=NNC(=O)Cn2nc(CNC(=O)c3c(C)cc(C)nc3S)oc2=S)cc1 [Compound 7, 4,6-Dimethyl-N-{[4-(2-(2-(4-methylbenzylidene)hydrazinyl)-2-oxoethyl)-5-sulfanylidene-4,5-dihydro-1,3,4-oxadiazole-2-yl]methyl}-2-sulfanylpyridine-3-carboxamide]	58.2 ± 2	215 to 220	148 ± 19.8	68.3 ± 3.24	95 ± 27	107 ± 38	–
CSc1ccc(/C=N\NC(=O)Cn2nc(CNC(=O)c3c(C)cc(C)nc3S)oc2=S)cc1 [Compound 8, 4,6-Dimethyl-N-{[4-(2-(2-(4-methysulfanylbenzylidene)hydrazinyl)-2-oxoethyl)-5-sulfanylidene-4,5-dihydro-1,3,4-oxadiazole-2-yl]methyl}-2-sulfanylpyridine-3-carboxamide]	58.7 ± 1.94	235 to 238	157 ± 12.1	50.4 ± 2.45	80 ± 22	65 ± 20	–
Cc1cc(C)c(C(=O)NCc2nn(CC(=O)NN=Cc3ccc(C#N)cc3)c(=S)o2)c(S)n1 [Compound 9, 4,6-Dimethyl-N-{[4-(2-(2-(4-cyanobenzylidene)hydrazinyl)-2-oxoethyl)-5-sulfanylidene-4,5-dihydro-1,3,4-oxadiazole-2-yl]methyl}-2-sulfanylpyridine-3-carboxamide]	59.4 ± 1.9	298 to 300	154 ± 6.29	89.8 ± 8.43	91 ± 19	76 ± 22	–
Cc1cc(C)c(C(=O)NCc2nn(CC(=O)NN=Cc3ccc(Cl)cc3)c(=S)o2)c(S)n1 [Compound 10, 4,6-Dimethyl-N-{[4-(2-(2-(4-chlorobenzylidene)hydrazinyl)-2-oxoethyl)-5-sulfanylidene-4,5-dihydro-1,3,4-oxadiazole-2-yl]methyl}-2-sulfanylpyridine-3-carboxamide]	59.9 ± 2.04	278 to 280	–	130 ± 9.5	91 ± 14	85 ± 27	selectively inhibited the activity of COX-2
Cc1cc(C)c(C(=O)NCc2nn(CC(=O)NN=Cc3ccc(C(F)(F)F)cc3)c(=S)o2)c(S)n1 [Compound 11, 4,6-Dimethyl-N-{[4-(2-(2-(4-trifluoromethylbenzylidene)hydrazinyl)-2-oxoethyl)-5-sulfanylidene-4,5-dihydro-1,3,4-oxadiazole-2-yl]methyl}-2-sulfanylpyridine-3-carboxamide]	59 ± 3.62	253 to 255	86.2 ± 2.6	104 ± 4.98	84 ± 17	124 ± 65	–
Cc1cc(C)c(C(=O)NCc2nn(CC(=O)NN=Cc3cccc(Cl)c3)c(=S)o2)c(S)n1 [Compound 12, 4,6-Dimethyl-N-{[4-(2-(2-(3-chlorobenzylidene)hydrazinyl)-2-oxoethyl)-5-sulfanylidene-4,5-dihydro-1,3,4-oxadiazole-2-yl]methyl}-2-sulfanylpyridine-3-carboxamide]	58.7 ± 2.21	273 to 275	66.8 ± 5.19	79.2 ± 14.4	79 ± 16	91 ± 43	–
Cc1cc(C)c(C(=O)NCc2nn(CC(=O)NN=Cc3ccccc3Br)c(=S)o2)c(S)n1 [Compound 13, 4,6-Dimethyl-N-{[4-(2-(2-(2-bromobenzylidene)hydrazinyl)-2-oxoethyl)-5-sulfanylidene-4,5-dihydro-1,3,4-oxadiazole-2-yl]methyl}-2-sulfanylpyridine-3-carboxamide]	59.3 ± 3.43	285 to 288	84.4 ± 5.89	55.7 ± 1.84	69 ± 10	70 ± 30	–
